The text below walks through data of patent US11173145B2, “Compounds useful as inhibitors of indoleamine 2,3-dioxygenase and/or tryptophan dioxygenase” (Board of Regents, The University of Texas System, priority 2017, dated 2021).

In one assay the target is T1, mouse IDO1 (Mus musculus, UniProt P28776).
T1 construct: The murine PANC02 pancreatic ductal adenocarcinoma cell line was routinely maintained in DMEM media; endogenous in cells; host or cells: PANC02 murine pancreatic ductal adenocarcinoma cells, induced with mouse IFNgamma
Briefly: Mouse IDO1 cell-based assay (PANC02 cells, mouse IFNgamma-induced, N-formylkynurenine/L-tryptophan by RFMS). The settings on record: 30 ng/mL mouse IFNgamma, 48 hours. Here is the method:
The murine PANC02 pancreatic ductal adenocarcinoma cell line was routinely maintained in DMEM media containing 10% FBS. Cells (3,000/well) were seeded onto a 384 well plate in 50 μl of media and incubated at 37° C., 5% CO2 overnight. Cell media was aspirated, fresh media containing 30 ng/mL mouse IFNgamma (Gibco Life Technologies, cat #PMC4031) was added, and cells were incubated in absence or presence of various concentrations of compounds (final 0.5% DMSO) for 48 hours at 37° C., 5% CO2. Aliquots of the cell conditioned media was removed from the cell plate, and mixed with equal volume of 200 mM ZnSO4 to precipitate media containing protein. Two volumes of acetonitrile were added by mixing, and samples were then centrifuged at 2250G for 20 minutes at 4° C. Aliquots of the supernatant were diluted 1:10 in 0.1% formic acid containing 3 μM of deuterated Tryptophan as an internal standard.
Samples were analyzed via RFMS to quantify N-Formyl Kynurenine (AUC) and L-tryptophan (AUC). A C18 cartridge was used with mobile phases of 0.1% Formic Acid and 80% ACN/0.1% Formic Acid under isocratic conditions. Dose-response curves were analyzed using IC50 regression curve fitting (GeneData Screener). Curves were plotted as percent of control and normalized by high controls without inhibitor (100%), and low controls (0%) containing 1 μM of epacadostat. Cell viability was also assessed using the Cell Titer Glo Kit (Promega) following manufacture recommendation.

Another assay has as its target T2, IDO1 (Homo sapiens, UniProt P14902).
T2 construct: endogenous in cells; host or cells: HeLa cells (ATCC), IFNgamma-induced
Briefly: IDO1 cell-based assay (HeLa cells, IFNgamma-induced, N-formylkynurenine/L-tryptophan by RFMS). Conditions: 10 ng/mL IFNgamma, 24 hours. The procedure, abridged: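 N-formylkynurenine and tryptophan peak areas in media measured by RFMS (C18, isocratic, d-Trp standard), giving IC50 values by regression. Source: HeLa cells incubated 24 h with IFNgamma (10 ng/mL) plus test compound at 0.5% DMSO; parallel CellTiter-Glo viability read.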

As a reminder, the IC50 is the point on the concentration scale where inhibition reaches its midpoint.

T2 sequence (P14902 whole entry): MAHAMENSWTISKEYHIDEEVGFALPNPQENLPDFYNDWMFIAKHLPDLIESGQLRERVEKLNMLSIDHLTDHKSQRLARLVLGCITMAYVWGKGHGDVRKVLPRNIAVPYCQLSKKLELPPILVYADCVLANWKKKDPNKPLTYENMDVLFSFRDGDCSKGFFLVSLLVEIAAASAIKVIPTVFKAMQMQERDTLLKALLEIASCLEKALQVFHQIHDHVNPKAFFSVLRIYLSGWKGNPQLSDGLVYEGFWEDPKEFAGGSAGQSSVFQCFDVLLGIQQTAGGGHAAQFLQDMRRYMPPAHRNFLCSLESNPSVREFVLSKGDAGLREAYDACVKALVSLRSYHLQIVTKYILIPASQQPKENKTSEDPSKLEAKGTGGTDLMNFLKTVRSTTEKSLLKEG
T1 sequence (P28776 whole entry): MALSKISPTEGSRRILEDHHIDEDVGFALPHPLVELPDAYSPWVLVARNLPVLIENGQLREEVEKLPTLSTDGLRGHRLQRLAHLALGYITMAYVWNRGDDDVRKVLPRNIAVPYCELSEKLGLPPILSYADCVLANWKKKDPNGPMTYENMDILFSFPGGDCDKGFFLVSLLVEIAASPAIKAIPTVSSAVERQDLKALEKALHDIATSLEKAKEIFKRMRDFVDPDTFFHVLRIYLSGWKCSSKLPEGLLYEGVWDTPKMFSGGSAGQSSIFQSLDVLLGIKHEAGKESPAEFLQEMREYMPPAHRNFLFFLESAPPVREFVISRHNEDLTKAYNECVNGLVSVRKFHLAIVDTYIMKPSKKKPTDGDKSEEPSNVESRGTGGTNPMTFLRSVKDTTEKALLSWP

With `CCC(NC(=O)c1ccc(Cl)cc1)[C@H]1[C@@H]2C[C@@H](n3c(=O)[nH]c4ccccc43)C[C@@H]21` (stereo partly drawn) [Compound 180, 4-chloro-N-(1-((1R,3s,5S,6r)-3-(2-oxo-2,3-dihydro-1H-benzo[d]imidazol-1-yl)bicyclo[3.1.0]hexan-6-yl)propyl)benzamide], the IC50 is 0.5 to 2 µM against mouse IDO1 and 0.2 to 2 µM on IDO1.

Regarding `CCC(NC(=O)c1ccc(Cl)cc1)[C@H]1[C@@H]2C[C@@H](n3nnc4ccc(Br)cc43)C[C@@H]21` (stereo partly drawn) [Compound 178, N-(1-((1R,3s,5S,6r)-3-(6-bromo-1H-benzo[d][1,2,3]triazol-1-yl)bicyclo[3.1.0]hexan-6-yl)propyl)-4-chlorobenzamide], the IC50 was < 0.5 µM against mouse IDO1 and < 0.2 µM against IDO1.

Turning to `CCC(NC(=O)c1ccc(Cl)cc1)[C@H]1[C@@H]2C[C@@H](n3ncc4c(F)cccc43)C[C@@H]21` (stereo partly drawn) [Compound 210, 4-chloro-N-(1-((1R,3s,5S,6r)-3-(4-fluoro-1H-indazol-1-yl)bicyclo[3.1.0]hexan-6-yl)propyl)benzamide], the IC50 against mouse IDO1 was 0.5 to 2 µM; at IDO1, < 0.2 µM.

With `CCC(NC(=O)c1ccc(Cl)cc1)[C@H]1[C@@H]2C[C@@H](Nc3ccc(F)cn3)C[C@@H]21` (stereo partly drawn) [Compound 227, 4-chloro-N-(1-((R, 3s, 5S, 6r)-3-((5-fluoropyridin-2-yl)amino)bicyclo[3.1.0]hexan-6-yl)propyl)benzamide], the IC50 is 0.5 to 2 µM at mouse IDO1 and < 0.2 µM on IDO1.

For the compound `CCC(NC(=O)c1ccc(Cl)cc1)[C@H]1[C@@H]2C[C@@H](n3ncc4cccnc43)C[C@@H]21` (stereo partly drawn) [Compound 212, N-(1-((1R,3s,5S,6r)-3-(1H-pyrazolo[3,4-b]pyridin-1-yl)bicyclo[3.1.0]hexan-6-yl)propyl)-4-chlorobenzamide], the IC50 is 0.5 to 2 µM at mouse IDO1 and < 0.2 µM against IDO1.

Take `COCc1cn([C@@H]2C[C@@H]3[C@H](C2)[C@H]3C(C)NC(=O)c2ccc(C#N)cc2)nn1` (stereo partly drawn) [Compound 242, 4-cyano-N-(1-((1R,3s,5S,6r)-3-(4-(methoxymethyl)-1H-1,2,3-triazol-1-yl)bicyclo[3.1.0]hexan-6-yl)ethyl)benzamide]: the IC50 against mouse IDO1 is > 5 µM; on IDO1 it was 0.2 to 2 µM.

As for `CCC(NC(=O)c1ccc(Cl)cc1)[C@H]1[C@@H]2C[C@@H](Nc3c([N+](=O)[O-])ccc(F)c3F)C[C@@H]21` (stereo partly drawn) [Compound 244, 4-chloro-N-(1-((1R,3s,5S,6r)-3-((2,3-difluoro-6-nitrophenyl)amino)bicyclo[3.1.0]hexan-6-yl)propyl)benzamide], the results for the IC50 against mouse IDO1 and on IDO1 were 0.5 to 2 µM and < 0.2 µM, respectively.

Regarding `CCC(NC(=O)c1ccc(Cl)cc1)[C@H]1[C@@H]2C[C@@H](Oc3nc4cc(F)ccc4[nH]3)C[C@@H]21` (stereo partly drawn) [Compound 193, 4-chloro-N-(1-((1R,3s,5S,6r)-3-((6-fluoro-1H-benzo[d]imidazol-2-yl)oxy)bicyclo[3.1.0]hexan-6-yl)propyl)benzamide], the IC50 against mouse IDO1 lay within 0.5 to 2 µM; against IDO1, 0.2 to 2 µM.

As for `CCOC(=O)C(N[C@@H]1C[C@@H]2[C@H](C1)[C@H]2C(CC)NC(=O)c1ccc(Cl)cc1)c1ccccc1` (stereo partly drawn) [Compound 190, ethyl 2-(((1R,3s,5S,6r)-6-(1-(4-chlorobenzamido)propyl)bicyclo[3.1.0]hexan-3-yl)amino)-2-phenylacetate], the IC50 was > 5 µM on mouse IDO1 and 0.2 to 2 µM on IDO1.

For the compound `CCC(NC(=O)c1ccc(Cl)cc1)[C@H]1[C@@H]2C[C@@H](Nc3cc(F)cc(F)c3[N+](=O)[O-])C[C@@H]21` (stereo partly drawn) [Compound 243, 4-chloro-N-(1-((1R,3s,5S,6r)-3-((3,5-difluoro-2-nitrophenyl)amino)bicyclo[3.1.0]hexan-6-yl)propyl)benzamide], the IC50 lay in the range of 0.5 to 2 µM at mouse IDO1 and 0.2 to 2 µM against IDO1.

For `CCc1cnnn1[C@@H]1C[C@@H]2[C@H](C1)[C@H]2C(CC)NC(=O)c1ccc(Cl)cc1` (stereo partly drawn) [Compound 165, 4-chloro-N-(1-((1R,3s,5S,6r)-3-(5-ethyl-1H-1,2,3-triazol-1-yl)bicyclo[3.1.0]hexan-6-yl)propyl)benzamide], the IC50 against mouse IDO1 is < 0.5 µM; at IDO1 it was < 0.2 µM.

Consider `CCC(NC(=O)c1ccc(Cl)cc1)[C@H]1[C@@H]2C[C@@H](NC(=O)c3cccnc3)C[C@@H]21` (stereo partly drawn) [Compound 145, N-((1R,3s,5S,6r)-6-(1-(4-chlorobenzamido)propyl)bicyclo[3.1.0]hexan-3-yl)nicotinamide], for which the IC50 against mouse IDO1 is > 5 µM; against IDO1, < 0.2 µM.

As to `CCC(NC(=O)c1ccc(Cl)cc1)[C@H]1[C@@H]2C[C@H](NC(=O)c3nccc(C(F)(F)F)c3Cl)C[C@@H]21` (stereo partly drawn) [Compound 222, 3-chloro-N-((1R,3r,5S,6r)-6-(1-(4-chlorobenzamido)propyl)bicyclo[3.1.0]hexan-3-yl)-4-(trifluoromethyl)picolinamide], the IC50 against mouse IDO1 lay in the range of 0.5 to 2 µM; at IDO1, 0.2 to 2 µM.

As to `O=C(Nc1ccc(Cl)cc1)[C@H]1[C@@H]2CN(c3ncnc4ccc(F)cc34)C[C@@H]21` [Compound 252, (1R,5S,6r)-N-(4-chlorophenyl)-3-(6-fluoroquinazolin-4-yl)-3-azabicyclo[3.1.0]hexane-6-carboxamide], the IC50 against mouse IDO1 was 2 to 5 µM; on IDO1, > 5 µM.

For the compound `CCC(NC(=O)c1ccc(Cl)cc1)[C@H]1[C@@H]2C[C@@H](NC(=O)c3ncccc3F)C[C@@H]21` (stereo partly drawn) [Compound 188, N-((1R,3s,5S,6r)-6-(1-(4-chlorobenzamido)propyl)bicyclo[3.1.0]hexan-3-yl)-3-fluoropicolinamide], the IC50 against mouse IDO1 was 0.5 to 2 µM; against IDO1 it was < 0.2 µM.

Consider `CCC(NC(=O)c1ccc(Cl)cc1)[C@H]1[C@@H]2C[C@@H](N3C(=O)c4ccccc4C3=O)C[C@@H]21` (stereo partly drawn) [Compound 161, 4-chloro-N-(1-((1R,3s,5S,6r)-3-(1,3-dioxoisoindolin-2-yl)bicyclo[3.1.0]hexan-6-yl)propyl)benzamide], for which the IC50 against mouse IDO1 was 0.5 to 2 µM; on IDO1, < 0.2 µM.

`CCC(NC(=O)c1ccc(Cl)cc1)[C@H]1[C@@H]2C[C@@H](NC(=O)N(C)c3ccccn3)C[C@@H]21` (stereo partly drawn) [Compound 189, 4-chloro-N-(1-((1R,3s, 5S, 6r)-3-(3-methyl-3-(pyridin-2-yl)ureido)bicyclo[3.1.0]hexan-6-yl)propyl)benzamide]: the IC50 against mouse IDO1 is 0.5 to 2 µM; against IDO1, < 0.2 µM.

Consider `CCC(NC(=O)c1ccc(Cl)cc1)[C@H]1[C@@H]2C[C@H](NC(=O)c3ncccc3F)C[C@@H]21` (stereo partly drawn) [Compound 220, N-((1R,3r,5S,6r)-6-(1-(4-chlorobenzamido)propyl)bicyclo[3.1.0]hexan-3-yl)-3-fluoropicolinamide], for which the values for the IC50 on mouse IDO1 and at IDO1 were < 0.5 µM and < 0.2 µM, respectively.

As for `CCC(NC(=O)c1ccc(Cl)cc1)[C@H]1[C@@H]2C[C@H](NC(=O)c3ccc(F)cn3)C[C@@H]21` (stereo partly drawn) [Compound 221, N-((1R,3r,5S,6r)-6-(1-(4-chlorobenzamido)propyl)bicyclo[3.1.0]hexan-3-yl)-5-fluoropicolinamide], the IC50 against mouse IDO1 is < 0.5 µM; at IDO1, < 0.2 µM.

Consider `CCC(NC(=O)c1ccc(Cl)cc1)[C@H]1[C@@H]2C[C@@H](NC(=O)c3ncc(F)cc3F)C[C@@H]21` (stereo partly drawn) [Compound 171, N-((1R,3s,5S,6r)-6-(1-(4-chlorobenzamido)propyl)bicyclo[3.1.0]hexan-3-yl)-3,5-difluoropicolinamide], for which the IC50 was 0.5 to 2 µM at mouse IDO1 and < 0.2 µM on IDO1.

`CCC(NC(=O)c1ccc(Cl)cc1)[C@H]1[C@@H]2C[C@@H](Oc3ncnc4cc(Cl)ccc34)C[C@@H]21` (stereo partly drawn) [Compound 253, 4-chloro-N-(1-((1R,3s,5S,6r)-3-((7-chloroquinazolin-4-yl)oxy)bicyclo[3.1.0]hexan-6-yl)propyl)benzamide]: the values for the IC50 against mouse IDO1 and against IDO1 were 2 to 5 µM and < 0.2 µM, respectively.

As to `CCC(NC(=O)c1ccc(Cl)cc1)[C@H]1[C@@H]2C[C@@H](NC(=O)c3cncc(Cl)n3)C[C@@H]21` (stereo partly drawn) [Compound 150, 6-chloro-N-((1R,3s,5S,6r)-6-(1-(4-chlorobenzamido)propyl)bicyclo[3.1.0]hexan-3-yl)pyrazine-2-carboxamide], the values for the half-inhibitory concentration (IC50) on mouse IDO1 and on IDO1 were 2 to 5 µM and < 0.2 µM, respectively.

In the case of `O=C(NCc1ccc(Cl)cc1)[C@@H]1[C@@H]2CN(c3ncnc4ccc(F)cc34)C[C@@H]21` [Compound 249, (1R,5S,6s)-N-(4-chlorobenzyl)-3-(6-fluoroquinazolin-4-yl)-3-azabicyclo[3.1.0]hexane-6-carboxamide], the IC50 at mouse IDO1 and on IDO1 was > 5 µM in each case.

As to `CCC(NC(=O)c1ccc(Cl)cc1)[C@H]1[C@@H]2C[C@@H](NC(C(=O)O)c3ccccc3)C[C@@H]21` (stereo partly drawn) [Compound 217, 2-(((1R,3s,5S,6r)-6-(1-(4-chlorobenzamido)propyl)bicyclo[3.1.0]hexan-3-yl)amino)-2-phenylacetic acid], the IC50 on mouse IDO1 and on IDO1 was > 5 µM throughout.
